Measured values published in patent publication US20210113617A1, “METHODS AND COMPOSITIONS FOR TH9 CELL MEDIATED CANCER TREATMENT” (Wake Forest University Health Sciences, priority 2018, published 2021).

What was measured:
OT-II-Th9 cells = assay: QNZ on restimulated OT-II-Th9 cells (CFSE dilution, cell yield, Annexin V/PI); assay type: cell-based, mice
Description: (§1) CFSE labeling and cytotoxicity assay. In some experiments, Th cells were incubated for 5 minutes at 37° C. with 1 μM CFSE in PBS, and then washed extensively. We measured proliferation of T cells by the relative CFSE dilution method after stimulation or transfer into tumor-bearing mice. In the cytotoxicity assay, B16-OVA target cells or B16 non-target cells for OT-II T cells were labeled with 5 μM CFSE. B16-OVA target cells or B16 non-target control cells were incubated alone in triplicate with the OT-II T cells at a 1:10 effector-to-target ratio. For TRP-1 T cells, B16 target cells or MC38 non-target control cells were used. After 18 hours, CFSE^+ tumor cells from each target and control well were stained using FVD and analyzed by FACS. FVD^+ tumor cells were considered as dead cells. The percent specific lysis was calculated as (FVD^+ target−FVD^+ control)×100%.
(§2) Moreover, we further confirmed the increased proliferative capacity of Th9 cells by CFSE-dilution assay and by calculating the cell yields after the first-round activation and the subsequent reactivation (FIGS. 5G-5H).

OT-II-Th17 cells = assay: QNZ on restimulated OT-II-Th17 cells (CFSE dilution); assay type: cell-based, mice; conditions: restimulated with antigen-pulsed APCs for 2 days in presence of QNZ
Description: as §1, §2

SMILES: Nc1ccc2ncnc(NCCc3ccc(Oc4ccccc4)cc3)c2c1 [QNZ]
- Th9 hyperproliferation (OT-II-Th9 cells; restimulated with OT-II peptide-pulsed APCs in presence of QNZ for 48 hours): significantly arrested Th9 hyperproliferation
- Th9 cell apoptosis (OT-II-Th9 cells; restimulated with antigen-pulsed APCs for 2 days in presence of QNZ): did not induce Th9 cell apoptosis
- proliferation of Th17 (OT-II-Th17 cells): minimal effect
